Reference: patent US20220128542A1, “TREATMENT EFFICIENCY EVALUATION” (TX MEDIC AB, priority 2019, published 2022)

Tested on: Human umbilical vein endothelial cells (HUVECs)
Assay: Gene expression array and pathway/upstream regulator analysis in HUVECs (Example 2)
Format: cell-based
Settings: for differentially expressed genes: HUVEC
Method: For each cell line, n=8×25 cm^2 culture flasks were set up. Two flasks were harvested for each cell type on the day of treatment (24 hours after seeding). This represents the Day0 time point. From the remaining flasks, three flasks were treated with Control Medium and three were treated with Culture Medium (CM) containing LMW-DS to give a final concentration of 0.01 mg/ml. Cells from the treated flasks were collected after 48 hours. Therefore the collected data represent (a) untreated cells (Day0 Controls and Day2 Controls) and (b) cells treated with LMW-DS for 48 hours (Day2 LMW-DS treated).
25 cm^2 flasks were coated by adding 2 ml per flask of a solution of 50 μg/ml poly-d-lysine in Hank's balanced salt solution (HBSS) and incubating overnight at 37° C. in the dark. Flasks were washed with cell culture water and air-dried for 30 min in the dark. Flasks were coated by adding 1 ml per flask of a solution of 25 μg/ml laminin in phosphate-buffered saline (PBS) and incubating for 2 hour at 37° C. in the dark. The laminin flasks were washed with PBS three times before plating cells.
Medium 200+Large Vessel Endothelial Supplement (M200+LVES) additive (1:50) was prepared and pre-warmed to 37° C. Cells were thawed in a 37° C. water bath for no longer than 2 min and gently transferred into a 50 ml tube containing 20 ml Dulbecco's Modified Eagle Medium, Nutrient Mixture F-12 (DMEM-F12). The cell suspension was mixed by inverting the tube carefully twice. Cells were spun at 400×g for 10 minutes. Supernatant removed and cells were re-suspended in 10 ml of culture media (M200+LVES additive).
Cells were counted with the Cellometer. 1,000,000 cells/flask were seeded in 25 cm^2 flasks (n=8) and medium was topped up to a total of 5 ml per flask. Cells were incubated at 37° C. with 5% CO2. Cells were allowed to settle for 24 hours before LMW-DS treatment.
A fresh 100× LMW-DS stock (1.0 mg/ml) was prepared in sterile DMEM-F12. The concentrated drug stock was sterile filtered and added to the respective culture media (19.6 ml CM and 0.4 ml LMW-DS stock solution). The Control was made using 19.6 ml CM and 0.4 ml of DMEM-F12. LMW-DS and CM were added to the respective flasks (5 ml each) to reach the 0.01 mg/ml concentration of LMW-DS in each dish with a total of 10 ml CM each.
CM was aspirated into a clean and labelled 15 ml Falcon tube. The flasks (without culture medium) were placed into the −80° C. freezer for 30 minutes. The CM in the Falcon tubes was spun at 3000×g for 5 minutes. Supernatant was removed and the small pellet was re-suspended in 2.5 ml Trizol:Water (4:1) solution at room temperature (RT, ˜22° C.).
The frozen flasks were removed one-by one from the freezer and the Trizol-Water from the appropriate tubes was moved to the flask. Flasks were left at RT for 5 minutes before the content was aspirated back into the 15 ml Falcon tube (after washing the bottom of the flask with the solution thoroughly). The flasks were inspected under the microscope to ensure full removal of cells. The collected lysates in the 15 ml Falcon tubes were placed into the −80° C. freezer.
Falcon tubes containing the homogenates were removed from the freezer and stored for 5 minutes at RT to permit the complete dissociation of nucleoprotein complexes.
Two aliquots of 1 ml lysate were removed from each sample and 200 μl of chloroform was added to each (0.2 ml of chloroform per 1 ml of TRIzol Reagent used during the cell lysis step) and the tube was shaken vigorously. Samples were stored at RT for 2-3 minutes and subsequently centrifuged at 12,000×g for 15 minutes at 4° C.
The mixture separated into three layers: a lower red phenol-chloroform phase, an interphase and a colorless upper aqueous phase. The RNA remained in the top aqueous phase, DNA in the white middle (interphase) phase and protein in the pink bottom (organic) phase. The top ¾ of the aqueous phase was transferred to a new clean Eppendorf tube. […]

sodium salt of dextran sulfate [LMW-DS]
differentially expressed genes (D0 control vs D2 LMW-DS treated, 0.01 mg/ml): 1779 genes
differentially expressed genes (D2 control vs D2 LMW-DS treated, 0.01 mg/ml): 76 genes
cell adhesion (HUVECs): not affected
number of genes: no effect / abolished nutrient effect (HUVECs, 0.01 mg/ml, 48 hours): 67
number of genes: no effect / total (HUVECs, 0.01 mg/ml, 48 hours): 67
number of genes: significant downregulation / abolished nutrient effect (HUVECs, 0.01 mg/ml, 48 hours): 4
number of genes: significant downregulation / enhanced response to nutrients (HUVECs, 0.01 mg/ml, 48 hours): 120
number of genes: significant downregulation / not different from control (HUVECs, 0.01 mg/ml, 48 hours): 167
number of genes: significant downregulation / total (HUVECs, 0.01 mg/ml, 48 hours): 291
number of genes: significant upregulation / abolished nutrient effect (HUVECs, 0.01 mg/ml, 48 hours): 11
number of genes: significant upregulation / enhanced response to nutrients (HUVECs, 0.01 mg/ml, 48 hours): 229
number of genes: significant upregulation / not different from control (HUVECs, 0.01 mg/ml, 48 hours): 1326
number of genes: significant upregulation / total (HUVECs, 0.01 mg/ml, 48 hours): 1566
number of genes: total / abolished nutrient effect (HUVECs, 0.01 mg/ml, 48 hours): 82
number of genes: total / enhanced response to nutrients (HUVECs, 0.01 mg/ml, 48 hours): 349
number of genes: total / not different from control (HUVECs, 0.01 mg/ml, 48 hours): 1493
number of genes: total / total (HUVECs, 0.01 mg/ml, 48 hours): 1924
